Source: US11478461B2, “[1.1.1] bicyclo compounds as indoleamine 2,3-dioxygenase inhibitors” (Merck Sharp & Dohme Corp., priority 2018, dated 2022)

How the values were obtained:
[1] = target: T1, IDO1 (Homo sapiens, UniProt P14902); assay: IDO1 Cellular Assay in Hela Cells Stimulated with IFNγ; assay type: cell-based; settings: IFNγ 100 ng/mL, 300 uM L-tryptophan, about 48 hours, fluorescence readout, read-out: IDO1 HELA Cell Assay, IC50
Procedure, shortened: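 HeLa cells stimulated with 100 ng/mL IFNγ, supplemented with 300 uM L-tryptophan, incubated 48 h at 37° C with ten 3-fold compound dilutions. Unstimulated cells served as Max-E control. Kynurenine detected by fluorescence (ex 400/em 510 nm) after overnight methyl isonipecotate reaction; IC50 by four-parameter logistic fit.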

[2] = target: T1, IDO1; assay: IDO1 Human whole blood Assay; assay type: cell-based; set-up: Human whole blood was drawn in sodium heparin coated tubes from healthy internal donors; from tissue; host or cells: Human whole blood from healthy donors, stimulated with LPS and IFNγ; settings: LPS and IFNγ 100 ng/mL, 18 h, kynurenine by LC/MS/MS
Experimental: Compounds to be tested were serially diluted in ten 3-fold steps in DMSO starting from 10 mM. 3 μL of compound dilutions or DMSO alone were then dispensed from the dilution plate into a polypropylene 96-well assay plate containing 97 μL of RPMI using an Echo 555 acoustic liquid handler (Labcyte). LPS and IFNγ was prepared in RPMI to a 10× of final conc. (1000 ng/mL), final concentration is 100 ng/mL.
Human whole blood was drawn in sodium heparin coated tubes from healthy internal donors. Two hundred forty μL of blood was transferred to each of the wells of a v-bottom 96 well plate. Thirty μL of compound was transferred from intermediate dilution plate, and incubated for 15 min. Thirty μL from stimulants was then transferred to blood and mixed thoroughly. Plate was covered with breathable membrane and incubated at 37° C. for overnight (18 h).
On day 2 isotope labeled standard of kynurenine and tryptophan was made in water at 10× concentration and 30 μL was added to the blood at 3 μM final concentration. The assay plates were centrifuged at 300×G for 10 min with no brake to separate plasma from red blood cells. Sixty μL of plasma samples was removed without disturbing red blood cells. Plasma was diluted with RPMI in 1:1 ratio and proteins were precipitated out with two volume of acetonitrile. The plates were centrifuged at 4000×G for 60 min. Twenty μL of supernatant was carefully transferred to a 384 well plate containing 40 μL of 0.1% formic acid in water and analyzed by LC/MS/MS.
LC/MS/MS analyses were performed using Thermo Fisher's LX4-TSQ Quantum Ultra system. This system consists of four Agilent binary high-performance liquid chromatography (HPLC) pumps and a TSQ Quantum Ultra triple quadruple MS/MS instrument. For each sample, 5 μL were injected onto an Atlantis T3 column (2.1 mm×150 mm, 3 μm particle size) from Waters. The mobile phase gradient pumped at 0.8 mL/min was used to elute the analytes from the column at 25° C. The elution started at 0% B increasing linearly to 25% B at 6.5 min, holding at 25% for 1 min, re-equilibrating to 10 min. Mobile phase A consisted of 0.1% formic acid in water. Mobile phase B consisted of 0.1% of formic acid in acetonitrile. Data was acquired in positive mode using a HESI interface. The operational parameters for the TSQ Quantum Ultra instrument were a spray voltage of 4000 V, capillary temperature of 380° C., vaporizer temperature 400° C., shealth gas 60 arbitrary units, Aux gas 20 arbitrary units, tube lens 85 and collision gas 1.2 mTorr. SRM chromatograms of kynurenine (Q1: 209.2>Q3:94.0) and internal standard (Q1: 215.3>Q3:98.2) were collected for 90 sec. The peak area was integrated by Xcalibur Quan software. The ratios between the kynurenine generated in the reaction and 2D6-Kynurenine spiked-in internal standard were used to generate percentage inhibition and IC50 values. Compounds were titrated and IC50's were calculated by 4 parameter sigmoidal curve fitting formula.
The biological activity data of selective compounds using the IDO1 human whole blood assay described above are summarized in the table below.

T1 sequence (P14902 whole entry): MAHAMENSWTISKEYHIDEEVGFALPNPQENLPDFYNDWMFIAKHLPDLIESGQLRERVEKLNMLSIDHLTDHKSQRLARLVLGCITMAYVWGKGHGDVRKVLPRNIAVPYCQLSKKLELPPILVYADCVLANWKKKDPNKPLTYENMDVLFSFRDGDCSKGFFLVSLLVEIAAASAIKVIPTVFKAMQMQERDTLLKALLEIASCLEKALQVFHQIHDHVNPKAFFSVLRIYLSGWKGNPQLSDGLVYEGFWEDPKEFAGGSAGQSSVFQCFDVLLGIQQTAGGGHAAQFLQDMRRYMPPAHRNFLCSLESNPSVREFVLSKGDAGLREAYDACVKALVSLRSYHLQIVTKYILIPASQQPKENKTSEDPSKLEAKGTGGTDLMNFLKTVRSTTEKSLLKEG

SMILES	IC50 [1]	IC50 [2]
C[C@H](C(=O)Nc1ccc(F)cc1)C12CC(NC(=O)OC3CCCC3)(C1)C2 [Example 77, cyclopentyl (S)-(3-(1-((4-fluorophenyl)amino)-1-oxopropan-2-yl)bicyclo[1.1.1]pentan-1-yl)carbamate]		452 nM
O=C(NC12CC(C3(C(=O)Nc4ccc(F)cc4)CC3)(C1)C2)c1ccc(Cl)c(Cl)c1 [Example 100, 3,4-Dichloro-N-(3-(1-((4-fluorophenyl)carbamoyl)cyclopropyl)bicyclo[1.1.1]pentan-1-yl)benzamide]	3.35 nM	454 nM
CC(C(=O)Nc1ccc(F)cc1)C12CC(NC(=O)c3ccc(Cl)c(Cl)c3)(C1)C2 (single isomer, unassigned) [Example 8, 3,4-dichloro-N-(3-(1-((4-fluorophenyl)amino)-1-oxopropan-2-yl)bicyclo[1.1.1]pentan-1-yl)benzamide]	3.1 nM	781 nM
CC(C(=O)Nc1ccc(F)nc1)C12CC(NC(=O)c3ccc(Cl)c(Cl)c3)(C1)C2 (single isomer, unassigned) [Example 14, 3,4-dichloro-N-(3-(1-((6-fluoropyridin-3-yl)amino)-1-oxopropan-2-yl)bicyclo[1.1.1]pentan-1-yl)benzamide]	6.16 nM	406 nM
CC(C(=O)Nc1ccc(Cl)c(F)c1)C12CC(NC(=O)c3cccc(Cl)c3)(C1)C2 (single isomer, unassigned) [Example 11, 3-chloro-N-(3-(1-((4-chloro-3-fluorophenyl)amino)-1-oxopropan-2-yl)bicyclo[1.1.1]pentan-1-yl)benzamide]	1.57 nM	525 nM
CC(C(=O)Nc1ccc(F)cc1)C12CC(NC(=O)c3ccc(Cl)c(Cl)c3)(C1)C2 (single isomer, unassigned) [Example 9, 3,4-dichloro-N-(3-(1-((4-fluorophenyl)amino)-1-oxopropan-2-yl)bicyclo[1.1.1]pentan-1-yl)benzamide]	1.55 nM	924 nM
CC(C(=O)Nc1ccc(Cl)nc1)C12CC(NC(=O)c3ccc(Cl)c(Cl)c3)(C1)C2 (single isomer, unassigned) [Example 15, 3,4-dichloro-N-(3-(1-((6-chloropyridin-3-yl)amino)-1-oxopropan-2-yl)bicyclo[1.1.1]pentan-1-yl)benzamide]	4.46 nM	1100 nM

Continued by falling IC50 [2], values first:

IC50 [1]	IC50 [2]	SMILES
4.13 nM	401 nM	O=C(NC12CC(C3(NC(=O)c4ccc(F)cc4)CC3)(C1)C2)c1ccc(Cl)c(Cl)c1 [Example 24, 3,4-Dichloro-N-(3-(1-(4-fluorobenzamido)cyclopropyl)bicyclo[1.1.1]pentan-1-yl)benzamide]
2.51 nM	328 nM	C[C@H](C(=O)Nc1ccc(F)cc1)C12CC(NC(=O)c3cc(Cl)ccc3F)(C1)C2 [Example 56, 5-chloro-2-fluoro-N-[3-[(1S)-2-(4-fluoroanilino)-1-methyl-2-oxo-ethyl]-1-bicyclo[1.1.1]pentanyl]benzamide]
5.26 nM	179 nM	CC(C(=O)Nc1ccc(Cl)nc1)C12CC(NC(=O)c3cccc(Cl)c3)(C1)C2 (single isomer, unassigned) [Example 17, 3-chloro-N-(3-(1-((6-chloropyridin-3-yl)amino)-1-oxopropan-2-yl)bicyclo[1.1.1]pentan-1-yl)benzamide]
2.12 nM	139 nM	Cc1cc(C(=O)NC23CC([C@@H](C)C(=O)Nc4ccc(F)cc4)(C2)C3)ccc1F [Example 46, 4-fluoro-N-[3-[(1R)-2-(4-fluoroanilino)-1-methyl-2-oxo-ethyl]-1-bicyclo[1.1.l]pentanyl]-3-methyl-benzamide]
2.14 nM	138 nM	Cc1ccc(C(=O)NC23CC([C@@H](C)C(=O)Nc4ccc(F)cc4)(C2)C3)cc1Cl [Example 36, 3-chloro-N-[3-[(1R)-2-(4-fluoroanilino)-1-methyl-2-oxo-ethyl]-1-bicyclo[1.1.1]pentanyl]-4-methyl-benzamide]
3.05 nM	113 nM	CC(C(=O)Nc1ccc(F)cc1)C12CC(NC(=O)c3cccc(Cl)c3)(C1)C2 (single isomer, unassigned) [Example 1, 3-Chloro-N-(3-(1-((4-fluorophenyl)amino)-1-oxopropan-2-yl)bicyclo[1.1.1]pentan-1-yl)benzamide]
2.5 nM	53.3 nM	C[C@H](C(=O)Nc1ccc(F)cc1)C12CC(NC(=O)c3ccc(Cl)cc3F)(C1)C2 [Example 52, 4-chloro-2-fluoro-N-[3-[(1S)-2-(4-fluoroanilino)-1-methyl-2-oxo-ethyl]-1-bicyclo[1.1.1]pentanyl]benzamide]
3.04 nM	49 nM	C[C@H](C(=O)Nc1ccc(F)cc1)C12CC(NC(=O)c3cc(F)c(F)c(F)c3)(C1)C2 [Example 145, (S)-3,4,5-trifluoro-N-(3-(1-((4-fluorophenyl)amino)-1-oxopropan-2-yl)bicyclo[1.1.1]pentan-1-yl)benzamide]
1.05 nM	48.2 nM	CC(C(=O)Nc1ccc(Cl)cc1)C12CC(NC(=O)c3cccc(Cl)c3)(C1)C2 (single isomer, unassigned) [Example 7, 3-Chloro-N-(3-(1-((4-chlorophenyl)amino)-1-oxopropan-2-yl)bicyclo [1.1.1]pentan-1-yl) Benzamide]
2.12 nM	44.7 nM	O=C(NC12CC(C3(C(=O)Nc4ccc(F)cc4)CCC3)(C1)C2)c1ccc(Cl)c(Cl)c1 [Example 5, 3,4-Dichloro-N-(3-(1-((4-fluorophenyl)carbamoyl)cyclobutyl)bicyclo[1.1.1]pentan-1-yl)benzamide]
